Read-outs that look alike come from different tables or passages of the source. One block for each compound: values may come before it.
What was measured:
MRC5 = test: MTS proliferation assay, MRC5; type: cell-based; settings: MRC5, 72 h incubation, read-out: MTS proliferation assay IC 50 MRC5
Outline: (§1)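 Proliferation is followed by MTS conversion, measured as absorbance at 492 nm. Cells are exposed for 72 h to four fixed compound concentrations (10 μM down to 0.3 μM) under 37° C, 7.5% CO2 culture conditions.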

[1] = tested on: adherent cells or suspension cells; test: Hoechst 33342 nuclear staining (fraction of apoptotic nuclei); type: cell-based; design: key: 0 relating to no activity; 1 relating to weak activity comprising less than 70% of the cells; score 2 relating to strong activity comprising more than 70% of the cells
HT1080 = test: MTS proliferation assay, HT1080; type: cell-based, human; settings: HT1080, 72 h incubation, read-out: MTS proliferation assay IC 50 HT1080
Outline: (§2)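 A 72 h exposure to compound (final 0.3–10 μM, four levels) was followed by 3 h MTS incubation and an A492 read.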

HeLa = test: MTS proliferation assay, HeLa; type: cell-based, human; settings: 72 h incubation, read-out: MTS proliferation assay IC 50 HeLa
Outline: as §2

Jily = test: MTS proliferation assay, Jily; type: cell-based; settings: 72 h incubation, read-out: MTS proliferation assay IC 50 Jily
Outline: as §1

Jurkat = test: MTS proliferation assay, Jurkat; type: cell-based, human; settings: 72 h incubation, read-out: MTS proliferation assay IC 50 Jurkat
Outline: as §2

SMILES: Nc1nonc1-c1nc2ccccc2n1CC(=O)c1cccc2ccccc12 [Example 41]
IC50 (MRC5): 100 to 1000 nM | Hoechst 33342 nuclear staining score ([1]; HeLa, conc 0.01 μm): 0 | Hoechst 33342 nuclear staining score ([1]; HeLa, conc 0.1 μm): 0 | Hoechst 33342 nuclear staining score ([1]; HeLa, conc 1 μm): 2 (score 2 relating to strong activity comprising more than 70% of the cells) | Hoechst 33342 nuclear staining score ([1]; Jily, conc 0.01 μm): 0 | Hoechst 33342 nuclear staining score ([1]; Jily, conc 0.1 μm): 0 | Hoechst 33342 nuclear staining score ([1]; Jily, conc 1 μm): 2 (score 2 relating to strong activity comprising more than 70% of the cells) | Hoechst 33342 nuclear staining score ([1]; Jurkat, conc 0.01 μm): 0 | Hoechst 33342 nuclear staining score ([1]; Jurkat, conc 0.1 μm): 0 | Hoechst 33342 nuclear staining score ([1]; Jurkat, conc 1 μm): 2 (score 2 relating to strong activity comprising more than 70% of the cells) | Hoechst 33342 nuclear staining score ([1]; MRC5, conc 0.01 μm): 0 | Hoechst 33342 nuclear staining score ([1]; MRC5, conc 0.1 μm): 0 | Hoechst 33342 nuclear staining score ([1]; MRC5, conc 1 μm): 0 | Hoechst 33342 nuclear staining score ([1]; PBLs, conc 0.01 μm): 0 | Hoechst 33342 nuclear staining score ([1]; PBLs, conc 0.1 μm): 0 | Hoechst 33342 nuclear staining score ([1]; PBLs, conc 1 μm): 1 (1 relating to weak activity comprising less than 70% of the cells) | IC50 (HT1080): 100 to 1000 nM | IC50 (HeLa): 100 to 1000 nM | IC50 (Jily): 100 to 1000 nM | IC50 (Jurkat): 100 to 1000 nM

SMILES: Nc1nonc1-c1nc2ccccc2n1CC(=O)/C=C/c1ccccc1 [Example 12, E-1-[2-(4-Aminofurazan-3-yl)-benzimidazol-1-yl]-4-phenyl-but-3-en-2-one]
IC50 (MRC5; Homo sapiens): > 1000 nM | Hoechst 33342 nuclear staining score ([1]; H460, conc 0.01 μm): 0 | Hoechst 33342 nuclear staining score ([1]; H460, conc 0.1 μm): 0 | Hoechst 33342 nuclear staining score ([1]; H460, conc 1 μm): 0 | Hoechst 33342 nuclear staining score ([1]; HeLa, conc 0.01 μm): 0 | Hoechst 33342 nuclear staining score ([1]; HeLa, conc 0.1 μm): 0 | Hoechst 33342 nuclear staining score ([1]; HeLa, conc 1 μm): 0 | Hoechst 33342 nuclear staining score ([1]; Jily, conc 0.01 μm): 0 | Hoechst 33342 nuclear staining score ([1]; Jily, conc 0.1 μm): 0 | Hoechst 33342 nuclear staining score ([1]; Jily, conc 1 μm): 2 (score 2 relating to strong activity comprising more than 70% of the cells) | Hoechst 33342 nuclear staining score ([1]; Jurkat, conc 0.01 μm): 0 | Hoechst 33342 nuclear staining score ([1]; Jurkat, conc 0.1 μm): 0 | Hoechst 33342 nuclear staining score ([1]; Jurkat, conc 1 μm): 2 (score 2 relating to strong activity comprising more than 70% of the cells) | Hoechst 33342 nuclear staining score ([1]; MRC5, conc 0.01 μm): 0 | Hoechst 33342 nuclear staining score ([1]; MRC5, conc 0.1 μm): 0 | Hoechst 33342 nuclear staining score ([1]; MRC5, conc 1 μm): 0 | Hoechst 33342 nuclear staining score ([1]; PBLs, conc 0.01 μm): 0 | Hoechst 33342 nuclear staining score ([1]; PBLs, conc 0.1 μm): 0 | Hoechst 33342 nuclear staining score ([1]; PBLs, conc 1 μm): 0 | IC50 (HT1080; Homo sapiens, HT-1080): > 1000 nM | IC50 (HeLa; Homo sapiens): > 1000 nM | IC50 (Jily): 100 to 1000 nM | IC50 (Jurkat; Homo sapiens): 100 to 1000 nM

SMILES: Nc1nonc1-c1nc2ccccc2n1CC(=O)c1ccc2ccccc2c1 [Example 42]
IC50 (MRC5): 100 to 1000 nM | Hoechst 33342 nuclear staining score ([1]; H460, conc 0.01 μm): 0 | Hoechst 33342 nuclear staining score ([1]; H460, conc 0.1 μm): 2 (score 2 relating to strong activity comprising more than 70% of the cells) | Hoechst 33342 nuclear staining score ([1]; H460, conc 1 μm): 2 (score 2 relating to strong activity comprising more than 70% of the cells) | Hoechst 33342 nuclear staining score ([1]; HeLa, conc 0.01 μm): 0 | Hoechst 33342 nuclear staining score ([1]; HeLa, conc 0.1 μm): 1 (1 relating to weak activity comprising less than 70% of the cells) | Hoechst 33342 nuclear staining score ([1]; HeLa, conc 1 μm): 2 (score 2 relating to strong activity comprising more than 70% of the cells) | Hoechst 33342 nuclear staining score ([1]; Jily, conc 0.01 μm): 0 | Hoechst 33342 nuclear staining score ([1]; Jily, conc 0.1 μm): 2 (score 2 relating to strong activity comprising more than 70% of the cells) | Hoechst 33342 nuclear staining score ([1]; Jily, conc 1 μm): 2 (score 2 relating to strong activity comprising more than 70% of the cells) | Hoechst 33342 nuclear staining score ([1]; Jurkat, conc 0.01 μm): 0 | Hoechst 33342 nuclear staining score ([1]; Jurkat, conc 0.1 μm): 2 (score 2 relating to strong activity comprising more than 70% of the cells) | Hoechst 33342 nuclear staining score ([1]; Jurkat, conc 1 μm): 2 (score 2 relating to strong activity comprising more than 70% of the cells) | Hoechst 33342 nuclear staining score ([1]; MRC5, conc 0.01 μm): 0 | Hoechst 33342 nuclear staining score ([1]; MRC5, conc 0.1 μm): 2 (score 2 relating to strong activity comprising more than 70% of the cells) | Hoechst 33342 nuclear staining score ([1]; MRC5, conc 1 μm): 2 (score 2 relating to strong activity comprising more than 70% of the cells) | Hoechst 33342 nuclear staining score ([1]; PBLs, conc 0.01 μm): 0 | Hoechst 33342 nuclear staining score ([1]; PBLs, conc 0.1 μm): 0 | Hoechst 33342 nuclear staining score ([1]; PBLs, conc 1 μm): 0 | IC50 (HT1080): 10 to 100 nM | IC50 (HeLa): 10 to 100 nM | IC50 (Jily): 10 to 100 nM | IC50 (Jurkat): 10 to 100 nM

Now from value to compound, other results behind:

IC50 (HT1080): 100 to 1000 nM | IC50 (HeLa): 100 to 1000 nM | IC50 (Jurkat): 100 to 1000 nM
SMILES: COc1cc(C(=O)Cn2c(-c3nonc3N)nc3ccccc32)ccc1OC(C)=O [Example 75]
IC50 (MRC5): 100 to 1000 nM | Hoechst 33342 nuclear staining score ([1]; H460, conc 0.01 μm): 0 | Hoechst 33342 nuclear staining score ([1]; H460, conc 0.1 μm): 0 | Hoechst 33342 nuclear staining score ([1]; H460, conc 1 μm): 2 (score 2 relating to strong activity comprising more than 70% of the cells) | Hoechst 33342 nuclear staining score ([1]; HeLa, conc 0.01 μm): 0 | Hoechst 33342 nuclear staining score ([1]; HeLa, conc 0.1 μm): 0 | Hoechst 33342 nuclear staining score ([1]; HeLa, conc 1 μm): 1 (1 relating to weak activity comprising less than 70% of the cells) | Hoechst 33342 nuclear staining score ([1]; Jily, conc 0.01 μm): 0 | Hoechst 33342 nuclear staining score ([1]; Jily, conc 0.1 μm): 0 | Hoechst 33342 nuclear staining score ([1]; Jily, conc 1 μm): 2 (score 2 relating to strong activity comprising more than 70% of the cells) | Hoechst 33342 nuclear staining score ([1]; Jurkat, conc 0.01 μm): 0 | Hoechst 33342 nuclear staining score ([1]; Jurkat, conc 0.1 μm): 0 | Hoechst 33342 nuclear staining score ([1]; Jurkat, conc 1 μm): 2 (score 2 relating to strong activity comprising more than 70% of the cells) | Hoechst 33342 nuclear staining score ([1]; MRC5, conc 0.01 μm): 0 | Hoechst 33342 nuclear staining score ([1]; MRC5, conc 0.1 μm): 0 | Hoechst 33342 nuclear staining score ([1]; MRC5, conc 1 μm): 1 (1 relating to weak activity comprising less than 70% of the cells) | Hoechst 33342 nuclear staining score ([1]; PBLs, conc 0.01 μm): 0 | Hoechst 33342 nuclear staining score ([1]; PBLs, conc 0.1 μm): 0 | Hoechst 33342 nuclear staining score ([1]; PBLs, conc 1 μm): 0 | IC50 (Jily): 100 to 1000 nM

IC50 (HT1080): 100 to 1000 nM | IC50 (HeLa): 100 to 1000 nM | IC50 (Jurkat): 100 to 1000 nM
SMILES: N#CCCNc1nonc1-c1nc2ccccc2n1COc1ccccc1 [Example 95]
IC50 (MRC5): 100 to 1000 nM | Hoechst 33342 nuclear staining score ([1]; HeLa, conc 0.01 μm): 0 | Hoechst 33342 nuclear staining score ([1]; HeLa, conc 0.1 μm): 0 | Hoechst 33342 nuclear staining score ([1]; HeLa, conc 1 μm): 1 (1 relating to weak activity comprising less than 70% of the cells) | Hoechst 33342 nuclear staining score ([1]; Jily, conc 0.01 μm): 0 | Hoechst 33342 nuclear staining score ([1]; Jily, conc 0.1 μm): 0 | Hoechst 33342 nuclear staining score ([1]; Jily, conc 1 μm): 1 (1 relating to weak activity comprising less than 70% of the cells) | Hoechst 33342 nuclear staining score ([1]; Jurkat, conc 0.01 μm): 0 | Hoechst 33342 nuclear staining score ([1]; Jurkat, conc 0.1 μm): 0 | Hoechst 33342 nuclear staining score ([1]; Jurkat, conc 1 μm): 2 (score 2 relating to strong activity comprising more than 70% of the cells) | Hoechst 33342 nuclear staining score ([1]; MRC5, conc 0.01 μm): 0 | Hoechst 33342 nuclear staining score ([1]; MRC5, conc 0.1 μm): 0 | Hoechst 33342 nuclear staining score ([1]; MRC5, conc 1 μm): 0 | Hoechst 33342 nuclear staining score ([1]; PBLs, conc 0.01 μm): 0 | Hoechst 33342 nuclear staining score ([1]; PBLs, conc 0.1 μm): 0 | Hoechst 33342 nuclear staining score ([1]; PBLs, conc 1 μm): 0 | IC50 (Jily): 100 to 1000 nM

IC50 (HT1080): 100 to 1000 nM | IC50 (HeLa): 100 to 1000 nM | IC50 (Jurkat): 100 to 1000 nM
SMILES: Nc1nonc1-c1nc2ccccc2n1COc1ccc(C=O)cc1 [Example 96]
IC50 (MRC5): 100 to 1000 nM | Hoechst 33342 nuclear staining score ([1]; H460, conc 0.01 μm): 0 | Hoechst 33342 nuclear staining score ([1]; H460, conc 0.1 μm): 0 | Hoechst 33342 nuclear staining score ([1]; H460, conc 1 μm): 1 (1 relating to weak activity comprising less than 70% of the cells) | Hoechst 33342 nuclear staining score ([1]; HeLa, conc 0.01 μm): 0 | Hoechst 33342 nuclear staining score ([1]; HeLa, conc 0.1 μm): 0 | Hoechst 33342 nuclear staining score ([1]; HeLa, conc 1 μm): 2 (score 2 relating to strong activity comprising more than 70% of the cells) | Hoechst 33342 nuclear staining score ([1]; Jily, conc 0.01 μm): 0 | Hoechst 33342 nuclear staining score ([1]; Jily, conc 0.1 μm): 0 | Hoechst 33342 nuclear staining score ([1]; Jily, conc 1 μm): 2 (score 2 relating to strong activity comprising more than 70% of the cells) | Hoechst 33342 nuclear staining score ([1]; Jurkat, conc 0.01 μm): 0 | Hoechst 33342 nuclear staining score ([1]; Jurkat, conc 0.1 μm): 0 | Hoechst 33342 nuclear staining score ([1]; Jurkat, conc 1 μm): 2 (score 2 relating to strong activity comprising more than 70% of the cells) | Hoechst 33342 nuclear staining score ([1]; MRC5, conc 0.01 μm): 0 | Hoechst 33342 nuclear staining score ([1]; MRC5, conc 0.1 μm): 0 | Hoechst 33342 nuclear staining score ([1]; MRC5, conc 1 μm): 0 | Hoechst 33342 nuclear staining score ([1]; PBLs, conc 0.01 μm): 0 | Hoechst 33342 nuclear staining score ([1]; PBLs, conc 0.1 μm): 0 | Hoechst 33342 nuclear staining score ([1]; PBLs, conc 1 μm): 0 | IC50 (Jily): 100 to 1000 nM

Source: patent USRE42890E1, “Furazanobenzimidazoles” (Basilea Pharmaceutica AG, priority 2003, dated 2011)
